Tests used:
[1] = tested on: cancer cells (A549 and HeLa) co-cultured with normal cells (COS7 and HLF); assay: CLSM imaging of cancer cells co-cultured with normal cells; type: cell-based; settings: A549 co-cultured with COS7, 2 μM, 30 min
Method: (§1) FIG. 5 CLSM images of live cancer cells (A549 and HeLa) co-cultured with normal cells (COS7 and HLF) (A), and the images of A549 and HLF cells seeded on different cover glasses (Scale bar=20 μm) (B) stained with 2 μM IVP-02 for 30 min (Scale bar=50 μm), respectively. λex=488 nm, λem=500-650 nm.
(§2) FIG. 10 CLSM images of live cancer cells (A549) co-cultured with normal cells (COS7) (A), and the images of A549 and HLF cells seeded on different cover glasses Scale bar=20 μm (B) stained with 2 μM IVP-02, 04, 06, 22, 42, and 62 for 30 min Scale bar=50 μm, respectively. (The first column in B is the same as FIG. 3B) λex=488 nm, λem=500-650 nm.
FIG. 11 CLSM images of live cancer cells (HeLa) co-cultured with normal cells (COS7), stained with 2 μM IVP-02, 04, 06, 22, 42, and 62 for 30 min, respectively. λex=488 nm, λem=500-650 nm. Scale bar=20 μm.
FIG. 12 CLSM images of live cancer cells (A549) co-cultured with normal cells (HLF), stained with 2 μM IVP-02, 04, 06, 22, 42, and 62 for 30 min, respectively. λex=488 nm, λem=500-650 nm. Scale bar=20 μm.
(§3) The bioimaging properties of IVP-02 in live cells were investigated by confocal laser scanning microscopy (CLSM). Cancer cells (A549 and HeLa) and normal cells (COS7 and HLF) were stained with IVP-02, respectively. […] So IVP-02 holds the high potential to differentiate cancer and normal cells. To verify this speculation, cancer and normal cells were co-cultured and stained with IVP-02. […] To precisely confirm the selectivity of IVP-02 to cancer cells, cancer cells A549 and normal cells HLF (A549 and HLF are both human lung cells) were seeded on different cover glasses, respectively. Then the two cover glasses were put in the same dish and stained with IVP-02 at the same time.
(§4) Cancer cells A549 co-cultured with normal cells COS7 were stained with these molecules, respectively. […] Then HeLa cells co-cultured with COS7 cells (FIG. 11), and A549 cells co-cultured with HLF cells (FIG. 12) were also stained with these molecules, the results were similar with that in A549 cells co-cultured with COS7 cells. In addition to co-culturing, A549 cells and HLF cells were also seeded on different cover glasses and stained with these molecules. […] Based on the imaging results above, it can be concluded that the selectivity of these IVP molecules to cancer cells is also based on the length of alkyl chain at pyridinium salt side. Lengthening the alkyl chain at the pyridinium salt side will eliminate the selectivity to cancer cells.

A549 and HLF cells = assay: CLSM imaging of A549 and HLF cells seeded on different cover glasses in the same dish; type: cell-based, human; settings: 2 μM, 30 min
Method: as §1, §2, §3, §4

[2] = tested on: mitochondria in HeLa and A549 cells; assay: Co-stain with mitochondrial probe MitoTracker Deep Red FM (MTDR); type: cell-based; settings: A549 and HeLa, 2 μM dye, co-stain 0.2 μM MTDR
Method: FIG. 6 CLSM images of live HeLa and A549 cells stained with 2 μM IVP-02 and 0.2 μM MTDR, respectively. IVP-02: λex=488 nm, λem=500-650 nm; MTDR: λex=640 nm, λem=650-700 nm. Scale bar=20 μm.
In the above pictures, filamentous structures in cytoplasm of cancer cells were observed, which were typical morphology of mitochondria. Then co-stain experiments with commercial mitochondrial probe MitoTracker™ Deep Red FM (MTDR) were carried out (FIG. 6).
It was speculated that the membrane permeability of the probe was a key factor for its selectivity to cancer cells, since the plasma membrane of cancer cells was reported to be more permeable than normal cells. Consequently, IVP-02 was modified by lengthening the alkyl chain at the pyridine salt side and indole side, respectively, to tune the membrane permeability. The synthetic route to these new IVP molecules is depicted in Scheme 1. Their chemical structures were fully characterized by ^1H NMR, ^13C NMR, and ^19F NMR. Then cancer cells A549 were stained with the five new molecules, respectively. […] The co-stain experiments with MTDR also confirmed their location in mitochondria in A549 cells in FIG. 7C. In addition to A549 cells, the same experiments were also carried in HeLa cells (FIGS. 8 and 9).

A549 cells = assay: Mitochondrion-nucleolus migration on CCCP treatment, A549 cells; type: cell-based, human; settings: for migration back to mitochondria after removal of CCCP: A549, CCCP removed, fresh medium 5 min; for migration from mitochondria to nucleolus after addition of CCCP: A549, pre-stained 2 μM 30 min, 20 μM CCCP 5 min
Method: FIG. 15 Live A549 cells (A) and live A549 co-cultured with COS 7 cells, live HeLa co-cultured with COS7 cells (B) were pre-stained with 2 μM IVP-02 for 30 min, and treated with 20 μM CCCP for 5 min. Then CCCP was removed away and fresh culture medium was added for another 5 min. λex=488 nm, λem=500-650 nm. Scale bar=20 μm.
FIG. 18 Live A549 cells were pre-stained with 2 μM IVP-04, 22, 42, 06, 62 for 30 min, and treated with 20 μM CCCP for 5 min. Then CCCP was removed away and fresh culture medium was added for another 5 min, respectively. λex=488 nm, λem=500-650 nm. Scale bar=20 μm.
(§5) Monitoring cell viability is a highly valuable task for the fundamental researches in biology, pathology, and medicine. Then we investigated whether IVP-02 could monitor cell viability. Δψm is a very important indicator to characterize cell viability. With the loss of cell viability, Δψm would decrease, while with the recovery of cell viability, Δψm would also recover to the normal level. […] Carbonyl cyanide m-chlorophenyl hydrazone (CCCP) is a type of protonophore and can cause rapid acidification of mitochondria by collapsing Δψm. Cancer cells A549 were pre-stained with IVP-02 for 30 min. In FIG. 15A, in the beginning, IVP-02 stained mitochondria clearly. […] Hydrogen peroxide (H2O2) can inhibit the oxidation respiratory chain that would cause the loss of cell viability. Then live A549 and HeLa cells were pre-stained with IVP-02, and treated with 10 mM H2O2.
(§6) In addition to IVP-02, we further investigated whether other IVP molecules could monitor the viability of cancer cells through mitochondrion-nucleolus migration was investigated. A549 cells were pre-stained with IVP-04, 22, 42, 06, and 62, respectively, and then CCCP was added.

HeLa cells = assay: Mitochondrion-nucleolus migration on CCCP treatment, HeLa cells; type: cell-based; settings: pre-stained 2 μM 30 min, 20 μM CCCP 5 min
Method: FIG. 16 Live HeLa cells were pre-stained with 2 μM IVP-02 for 30 min, and treated with 20 μM CCCP for 5 min. Then CCCP was removed away and fresh culture medium was added for another 5 min. λex=488 nm, λem=500-650 nm. Scale bar=20 μm.
FIG. 19 Live HeLa cells were pre-stained with 2 μM IVP-04, 22, 42, 06, 62 for 30 min, and treated with 20 μM CCCP for 5 min. Then CCCP was removed away and fresh culture medium was added for another 5 min, respectively. λex=488 nm, λem=500-650 nm. Scale bar=20 μm.
as §5, §6

RNA = RNA fluorescence titration, Scatchard equation; type: binding; settings: comparison in words
Excerpt: FIG. 20 (A) Fluorescence titration (left) of IVP-02 with RNA and the fitted curve (right) according to Scatchard equation. (B) The binding mode of IVP-02 to RNA. (C) Binding constant (k) and binding energy (E) of IVP molecules to RNA.
FIG. 21 Fluorescence titration (left) of IVP-04, 22, 42, 06, and 62 with RNA and the fitted curve (middle) according to Scatchard equation, and the binding mode (right) of them to RNA.
Why IVP-06 and 62 cannot stain the nucleolus in cancer cells to a significant extent? On one hand, when IVP molecules located in mitochondria, in addition to the electrostatic interaction between the cation and inner membrane negative charge of mitochondria, the hydrophobic interaction between alkyl chain and phospholipids also existed. When Δψm decreased, although the electrostatic interaction weakened, the hydrophobic interaction still remained. IVP-06 and 62 have longer alkyl chain than the other four IVP molecules, so the hydrophobic interaction between IVP-06 and 62 and phospholipids is stronger than that of the other four IVP molecules. […] In FIGS. 20A and 21, with the increase of RNA concentration, the fluorescence intensity of all the molecules increases. […] In FIG. 20B and FIG. 21, IVP molecules bound to the minor grooves of RNA, and the binding energy (E) was calculated and summarized in FIG. 20C.

[3] = Quantum yield in the solid state; type: physicochemical
Excerpt: IVPI-2 is able to stain mitochondria in healthy live cancer cells. However, when Δψm decreases, IVPI-2 migrates into nucleolus. Since IVPI-2 is target-changeable according to the change of mitochondrial physiology, the chemical structure of IVPI-2 was modified in order to enhance the mitochondria to nucleolus migration. Iodide ion is a well-known effective fluorescent quencher due to its heavy-atom effect. The quantum yield of IVP-02 in the solid state is 4.3%, which is about 3 times than that of IVPI-02 (1.3%). An Exemplary synthetic route to certain embodiments of the compounds described herein is depicted in Scheme 1.

Question: Which “staining of co-cultured cancer and normal cells” value [1] does the source give for `CCCC[n+]1ccc(/C=C/c2c[nH]c3ccccc23)cc1` [IVP-04] here?
Answer: can stain both A549 and COS7 cells

Question: And the “staining of A549 and HLF cells on different cover glasses” value (A549 and HLF cells)?
Answer: could stain both A549 and HLF cells

Question: What about the “mitochondrial staining in cancer cells” value [2] of the same compound?
Answer: can selectively stain mitochondria in cancer cells

Question: And the “migration back to mitochondria after removal of CCCP” value (A549 cells)?
Answer: could migrate back in mitochondria

Question: What about the “migration from mitochondria to nucleolus after addition of CCCP” value (from here on “migration from mitochondria to nucleolus”) (A549 cells) of the same compound?
Answer: could enter nucleus and stain nucleolus

Question: And the “nucleolus staining after addition of CCCP” value (shortened to “nucleolus staining”) (HeLa cells)?
Answer: could stain nucleolus

Question: For `CCCCCC[n+]1ccc(/C=C/c2c[nH]c3ccccc23)cc1` [IVP-06], which “staining of co-cultured cancer and normal cells” value [1] is on record?
Answer: can stain both A549 and COS7 cells

Question: And the “staining of A549 and HLF cells on different cover glasses” value (A549 and HLF cells)?
Answer: could stain both A549 and HLF cells

Question: And the “mitochondrial staining in cancer cells” value [2]?
Answer: can selectively stain mitochondria in cancer cells

Question: And the “migration from mitochondria to nucleolus” value (A549 cells)?
Answer: did not enter the nuclear to a substantial degree

Question: And the “nucleolus staining” value (HeLa cells)?
Answer: cannot

Question: What about the “binding constant (k) to RNA” value (RNA) of the same compound?
Answer: lower than that of IVP-02, 04, 22, and 42

Question: What does the source list for `CCn1cc(/C=C/c2cc[n+](CC)cc2)c2ccccc21` [IVP-22]?
Answer: staining of co-cultured cancer and normal cells [1]: only stain A549 cells; mitochondrial staining in cancer cells [2]: can selectively stain mitochondria in cancer cells; migration back to mitochondria after removal of CCCP (A549 cells): could migrate back in mitochondria; migration from mitochondria to nucleolus after addition of CCCP (A549 cells): could enter nucleus and stain nucleolus; nucleolus staining after addition of CCCP (HeLa cells): could stain nucleolus

Question: Which “staining of co-cultured cancer and normal cells” value [1] does the source give for `CCCCn1cc(/C=C/c2cc[n+](CC)cc2)c2ccccc21` [IVP-42] here?
Answer: only stain A549 cells

Question: And the “mitochondrial staining in cancer cells” value [2]?
Answer: can selectively stain mitochondria in cancer cells

Question: What about the “migration back to mitochondria after removal of CCCP” value (A549 cells) of the same compound?
Answer: could migrate back in mitochondria

Question: What about the “migration from mitochondria to nucleolus” value (A549 cells) of the same compound?
Answer: could enter nucleus and stain nucleolus

Question: And the “nucleolus staining” value (HeLa cells)?
Answer: could stain nucleolus

Question: For `CCCCCCn1cc(/C=C/c2cc[n+](CC)cc2)c2ccccc21` [IVP-62], which “staining of co-cultured cancer and normal cells” value [1] is on record?
Answer: only stain A549 cells

Question: What about the “mitochondrial staining in cancer cells” value [2] of the same compound?
Answer: can selectively stain mitochondria in cancer cells

Question: What about the “migration from mitochondria to nucleolus” value (A549 cells) of the same compound?
Answer: did not enter the nuclear to a substantial degree

Question: What about the “nucleolus staining” value (HeLa cells) of the same compound?
Answer: cannot

Question: What about the “binding constant (k) to RNA” value (RNA) of the same compound?
Answer: lower than that of IVP-02, 04, 22, and 42

Question: For `CC[n+]1ccc(/C=C/c2c[nH]c3ccccc23)cc1.[I-]` [IVPI-02, reference compound], which quantum yield [3] is on record?
Answer: 1.3%
